Assay results taken from patent publication EP3122861B1, “LIQUID DETERGENT COMPOSITIONS COMPRISING AN ALPHA-AMYLASE” (priority 2014, dated 2015).

Legend:
[1] = Assay for measurement of free calcium ions (calcium ion selective electrode); type: physicochemical; conditions: pH 8.0, 49 mM EPPS buffer, 80 mM potassium chloride, 21 °C; for chelator concentrations necessary to reduce the concentration of free calcium ions from 2.0 mM to 0.10 mM: by interpolation
Procedure: The following assay may be used for the measurement of free calcium ions in solution, and thus for the determination of chelating agents (chelants) ability to reduce the concentration of free calcium ions (Ca2+) from e.g. 2.0 mM to 0.10 mM at pH 8.
Various amounts of chelants are added to a solution of 2.0 mM Ca2+ and the free Ca2+ concentration is determined by using a Calcium Ion Selective Electrode at fixed pH and temperature. The concentration of chelant necessary to reduce the concentration of free calcium from 2.0 mM to 0.10 mM can be determined from a plot of the free calcium concentration measured versus the concentration of chelant. In the present assay the concentration of chelant necessary to reduce the concentration of free calcium from 2.0 mM to 0.10 mM is measured at pH 8, at 21°C, in potassium chloride and 49 mM EPPS.
Electrolyte solution: 4 M potassium chloride in ultrapure water (Milli-Q water). pH 8 buffer: 50 mM EPPS (4-(2-Hydroxyethyl)piperazine-1-propanesulfonic acid) adjusted to pH 8.0 using minimum amounts of 1 N sodium hydroxide. Calcium stock solution: 25 mM Ca2+ in pH 8 buffer, made from CaCl2.2H2O. Chelant stock solution: 15 mM chelant (on a 100 % dry chelator basis) in pH 8 buffer, re-adjusted to pH 8.0 using minimum amounts of 1 M NaOH or 1 M HCl.
Calcium Ion Selective Electrode from Thermo Scientific (cat. No. 9720BNWP) calibrated against a Calcium chloride standard solution. The electrode is calibrated as described by the guidelines following the electrode.
A series of vials are prepared, each containing 4 mL of the calcium stock solution (final concentration 2.0 mM), 1 mL electrolyte solution (final concentration 80 mM potassium chloride), chelant stock solution in various amounts (0 - 45 mL) and using the pH 8 buffer for adjusting the total volume to 50 mL. The final concentration of EPPS in the assay is 49 mM. After mixing, the concentration of free Ca2+ is measured by the calcium electrode. The free calcium concentration should be determined at a sufficient number of different chelant concentrations for each chelant tested, ensuring that the data set covers the entire range from 2.0 mM free calcium ions to a value below 0.10 mM or the final chelant concentration in the assay is higher than 10.0 mM. A suitable number of data points are 8 or more. The chelant concentration required to lower the initial 2.0 mM free calcium ions to 0.10 mM is obtained from a plot of the measured free calcium ion concentration versus chelator concentration by interpolation.
The solutions are equilibrated to the desired temperature, which in the present assay is 21°C.
Chelating agents (chelants) may be ranked by their ability to reduce the concentration of free calcium ions (Ca2+) from 2.0 mM to 0.10 mM at pH 8 developed from a method described by M.K.Nagarajan et al., JAOCS, Vol. 61, no. 9 (September 1984), pp. 1475-1478. The assay described above under "Materials and Methods" for measuring of free calcium ions was used. Accordingly, the concentration of chelant necessary to reduce the water hardness from 2.0 mM to 0.10 mM was determined as described above. The experiment was carried out with the pH 8 buffer at 21 °C. Table 12.1: Concentration of free Ca2+ determined in a mixture of 2.0 mM Ca2+ and various amounts of chelating agent at pH 8.
A number of chelants were characterized using this assay, and the chelator concentrations necessary to reduce the concentration of free calcium ions from 2.0 mM to 0.10 mM at pH 8.0 in 49 mM EPPS buffer and 80 mM potassium chloride are shown below in Table 12.2. This table can thus also be used for comparing the capabilities of the chelating agents for reducing the concentration of free calcium ions. Table 12.2

[2] = Determination of log K by ITC (isothermal titration calorimetry); conditions: binding constant of chelator and calcium ions, pH 10
Excerpt: Chelating agents can also be characterized by the binding constant of the chelating agent (chelator) and calcium ions. This constant can be determined by ITC (isothermal titration calorimetry) as described by AD Nielsen, CC Fuglsang and […], Analytical Biochemistry Vol. 314 (2003) page 227-234 and T Wiseman, S Williston, JF Brandts and L-N Lin, Analytical Biochemistry Vol. 179 (1989) page 131-137. All glassware and plastic bottles used are washed with a 1 % (w/w) EDTA solution and subsequently rinsed thoroughly in Chelex 100 treated ultrapure water (Milli-Q water). Solutions are stored in plastic bottles and kept at 5°C until use. […] • 125 μM chelant in 20 mM HEPES, pH 8 or 125 μM chelant in 20 mM glycine, pH 10 • 4 mM CaCl2 in 20 mM HEPES, pH 8 or 4 mM CaCl2 in 20 mM glycine, pH 10 • Ultrapure water (Milli-Q water) […] All solutions are degassed by stirring under vacuum before the experiments. INSTRUMENT: MCS-ITC (MicroCal Inc., Northampton, MA, USA) The reference cell is filled with ultrapure water (Milli-Q water). The sample cell is filled with the chelant solution at the selected pH and the syringe is filled with the calcium solution at the selected pH. The solutions are equilibrated to the desired temperature, e.g. 19°C. […] The obtained signals from the ITC are then integrated using the Origin software supplied by MicroCal Inc. To obtain the binding isotherms, regression routines are made using the same software package. […] Presently preferred is the "OneSites" model which gives the best fit for most of the commonly used chelating agents, i.e. the residuals are evenly distributed around zero. […] Alternatively, the chelating agents can be characterized by the binding constant of the chelating agent (chelator) and calcium ions. This constant can be determined by ITC (isothermal titration calorimetry) as described by AD Nielsen, CC Fuglsang and […], Analytical Biochemistry Vol. 314 (2003) page 227-234 and T Wiseman, S Williston, JF Brandts and L-N Lin, Analytical Biochemistry Vol. 179 (1989) page 131-137. The procedure for the determination of log K is described in detail above under "Materials and Methods". Using this procedure for determination of log K, the following log K values for several chelating agents were determined at pH 10 (Table 12.3). Table 12.3

| SMILES | Log K [2] | chelator concentration to reduce free calcium ions from 2.0 mM to 0.10 mM, Relative to citrate [1] | chelator concentrations necessary to reduce the concentration of free calcium ions from 2.0 mM to 0.10 mM [1] [mM] |
| --- | --- | --- | --- |
| O=C(O)CN(CCOCCOCCN(CC(=O)O)CC(=O)O)CC(=O)O [EGTA, ethylene glycol tetraacetic acid] | 9 | 0.33 | 2.60 |
| O=C(O)CN(CCN(CC(=O)O)CC(=O)O)CC(=O)O [EDTA, ethylene diamine tetraacetate] | 8 | 0.21 | 1.90 |
| O=C(O)CN(CCN(CC(=O)O)CC(=O)O)CCN(CC(=O)O)CC(=O)O [DTPA, diethylenetriaminepentaacetic acid] | 7 | 0.24 | 1.87 |
| O=P(O)(O)CN(CCN(CP(=O)(O)O)CP(=O)(O)O)CCN(CP(=O)(O)O)CP(=O)(O)O [DTMPA, diethylenetriaminepenta(methylene-phosphonic acid)] | – | 0.25 | 1.17 |

Now from value to compound, other results behind:

| Log K [2] | SMILES | chelator concentration to reduce free calcium ions from 2.0 mM to 0.10 mM, Relative to citrate [1] | chelator concentrations necessary to reduce the concentration of free calcium ions from 2.0 mM to 0.10 mM [1] [mM] |
| --- | --- | --- | --- |
| 3 | O=C(O)CC(O)(CC(=O)O)C(=O)O [Citrate] | 1.00 | 8.36 |
| 2.56 | C[C@@H](C(=O)O)N(CC(=O)O)CC(=O)O [MGDA, methylglycinediacetic acid or N,N'-bis(carboxymethyl)alanine] | 0.33 | 2.56 |
| 6 | CC(O)(P(=O)(O)O)P(=O)(O)O [HEDP, 1-Hydroxyethylidene-1,1-Diphosphonic Acid] | 0.20 | 1.60 |
